Reference: patent US20060094003A1, “Acetylcholine-dependent current as a novel ionic target for atrial fibrillation” (priority 2004, published 2006)

Legend:
[1] = system: multicellular canine atrial preparations; assay: Action potential recording with standard microelectrodes in multicellular canine atrial preparations (LA and PV); details: for APD90 / APD25 / APD50: after tertiapin-Q (200 nM per table title); for APD90: atropine present, 2 Hz
Method: Adult mongrel dogs of either sex (weighing about 20-35 kg) were anaesthetized with pentobarbital (30 mg kg^−1 I.V.) and artificially ventilated with room air. Hearts and adjacent lung tissue were relatively quickly excised through a left lateral thoracotomy and immersed in oxygenated Tyrode solution (composition detailed hereinbelow) at room temperature. Removal of the heart and lungs produced circulatory arrest, resulting in relatively effective and relatively humane killing. A left atrial (LA) preparation with the PVs intact was perfused via the left circumflex coronary artery, and subjected to either standard fine-tipped microelectrode recording of action potentials (APs) or cardiomyocyte isolation with collagenase-containing solutions, as previously described (Ehrlich et al. 2003). Six dogs were subjected to atrial tachycardia-induced remodeling induced by 1 week of atrial pacing at about 400 beats min^−1 after ablation of the AV node, as described in Li et al. 1999. Animal care and handling procedures followed the guidelines of the Canadian Council on Animal Care.
To isolate LA and PV cardiomyocytes, the proximal circumflex artery was cannulated and the distal ends of PV myocardial sleeves (approximately 1-1.5 cm from the PV-LA junction) were marked with silk thread prior to subsequent enzyme perfusion with collagenase (100 U ml^−1, Worthington, type II), in order to facilitate localization of PV sleeves after enzymatic digestion. […] With this method, PVs were relatively well-perfused and single cardiomyocytes could be isolated from all veins. Cardiomyocytes obtained from PVs were morphologically similar to LA cardiomyocytes isolated from the LA free wall in the same dogs. All comparisons were based on PV and LA cardiomyocytes isolated from each dog on each experimental day. After isolation, cells were stored at 4° C. and studied on the same day. For standard microelectrode experiments, intact tissue preparations including the LA and adjacent PVs were mounted in a chamber and perfused via the circumflex artery with oxygenated Krebs solution at 36±0.5° C. (see for example Kneller et al. 2002).
Fine-tipped microelectrodes (resistance 15-20 M when filled with 3 M KCl) coupled to a high input-impedance amplifier were used to record APs as described in Kneller et al. 2002.
Tyrode solution contained (mM): NaCl 136, KCl 5.4, MgCl2 1, CaCl2 1, NaH2PO4 0.33, Hepes 5 and dextrose 10 (pH 7.35 with NaOH). The cell-storage solution contained (mM): KCl 20, KH2PO4 10, dextrose 10, mannitol 40, L-glutamic acid 70, β-OH-butyric acid 10, taurine 20, EGTA 10 and 0.1% bovine serum albumin (pH 7.3, KOH). Nifedipine (5 μM) was used to suppress L-type Ca^2+ current (ICa) in all experiments. 4-Aminopyridine (4-AP, 2 mM) was added to suppress transient outward current (Ito). […] Na+ current (INa) contamination was avoided by using a HP of −40 mV for recording of hyperpolarization-induced currents and by substitution of equimolar Tris-HCl for external NaCl for tail-current recordings. When different external K^+ concentrations were applied, the osmolarity was kept constant by proportionate reduction of NaCl content in the solution. The standard internal solution contained (mM): potassium aspartate 110, KCl 20, MgCl2 1, MgATP 5, GTP (lithium salt) 0.1, Hepes 10, sodium phosphocreatine 5 and EGTA 5.0 (pH 7.3 with KOH). In experiments with K+-free internal solution, potassium aspartate was replaced by equimolar caesium aspartate and KCl by CsCl and pH was set to 7.3 with CsOH. For standard-microelectrode experiments, a solution containing (mM): NaCl 120, KCl 4, KH2PO4 1.2, MgSO4 1.2, NaHCO3 25, CaCl2 1.25 and dextrose 5 (95% O2-5% CO2, pH 7.4) was used to perfuse the tissue.
FIGS. 5E and F show representative APs before and after 100 nM tertiapin-Q in LA and PV.

[2] = system: AT-remodeled canine LA; assay: Action potential duration in AT-remodeled canine LA preparations; details: for effect on action potential duration (in words): AT-remodeled canine LA
Method: Adult dogs were divided into control and AT groups. AT dogs were initially anesthetized with diazepam (0.25 mg/kg IV), ketamine (5.0 mg/kg IV), and halothane (1% to 2%) for transvenous insertion of right ventricular (RV) and right atrial (RA) unipolar pacing leads connected to ventricular and atrial pacemakers implanted in the neck. Pacing began 24 hours after pacemaker implantation. AV block was created by radiofrequency catheter ablation and the RV demand-pacemaker was programmed to 80 bpm. The RA was then tachypaced (400 bpm) for 7-13 days.
On study days, dogs were anesthetized with pentobarbital (30 mg·kg^−1 I.V.) and artificially ventilated. Hearts and adjacent lung tissue were excised via a left thoracotomy and immersed in oxygenated Tyrode solution. For cell isolation, the proximal circumflex coronary artery was cannulated and distal ends of PV myocardial sleeves were marked with silk thread prior to enzyme perfusion with collagenase (100 U mL^−1, Worthington, type II), to facilitate identification after enzymatic digestion. PVs were well-perfused and single cardiomyocytes were isolated from all PVs. After isolation, cells were stored at 4° C. and studied within 12 hours.
For standard-microelectrode experiments and atrial-tachyarrhythmia induction, intact tissue preparations including the LA and adjacent PVs were mounted in a Plexiglas chamber and perfused via the left circumflex coronary artery with oxygenated Kreb's solution at 36±0.5° C. Fine-tipped microelectrodes (resistance 15-20 MΩ when filled with 3-mol/L KCL) coupled to a high-input impedance amplifier were used to record Action Potentials.
Table 1 quantifies this increase in duration by presenting the time required for action potentials in 8 dogs to reach 90%, 50% and 25% repolarization. Results are averages over 24 and 23 action potentials respectively for the pre-TQ data and the post-TQ data.

With tertiapin-Q the “effect on AP duration in LA and PV (in words)” value ([1]; 100 nM tertiapin-Q, 200 nM atropine) was “significantly prolonged”, the APD90 ([1]; LA, control 202.6 ± 2.6) was 242.7 ± 6.2 ms and the APD25 ([1]; LA, control 78.1 ± 2.8) was 84.7 ± 4.0 ms. For the same substance, the APD50 ([1]; LA, control 130.2 ± 4.0) was 146.8 ± 3.2 ms, the APD90 ([1]; PV, control 190.4 ± 4.3) was 234.2 ± 9.9 ms and the APD25 ([1]; PV, control 71.3 ± 3.4) was 86.1 ± 5.0 ms. It also gave an APD50 ([1]; PV, control 104.0 ± 3.8) of 126.8 ± 6.9 ms, an APD25 ([2]; 2 Hz, AT-remodeled preparations, post-TQ, pre-TQ 15.9 ± 1.7) of 39.0 ± 2.5 ms and an APD50 ([2]; 2 Hz, AT-remodeled preparations, post-TQ, pre-TQ 44.4 ± 2.3) of 87.4 ± 2.7 ms. The APD90 ([2]; 2 Hz, AT-remodeled preparations, post-TQ, pre-TQ 100.1 ± 2.6) was 162.2 ± 4.2 ms, the “effect on action potential duration (in words)” value [2] was “greatly increases” and the “effect on action potential duration (in words)” value ([2]; listed as TQ) was “prominently increased”.
